# Results as given in patent publication US11420935B2, “Bicyclic compounds” (Vivace Therapeutics, Inc., priority 2019, dated 2022).
# Tested on: 8×TBD luciferase reporter (YAP) in HEK293T cells
# Experiment: YAP Reporter Assay (8×TBD firefly luciferase reporter)
# Assay type: cell-based
# Settings: Homo sapiens, HEK-293T, 24 h, read-out: Firefly Luciferase IC50 (μM)
# Summary of the method: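 Stably transfected HEK293T cells (8×TBD firefly luciferase plus TK-renilla) were dosed with 10-point 1:3 dilutions from 3 μM final, quadruplicates, for 24 h at 37 °C. Dual-Glo read firefly and renilla luminescence; IC50 and maximal inhibition reported separately for each.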
row,Structure (SMILES),IC50
1,"CC(C)NC(=O)c1ccc2c(Oc3ccc(Cl)c(Cl)c3)cccc2c1 [Compound 3, 5-(3,4-dichlorophenoxy)-N-isopropyl-naphthalene-2-carboxamide]",< 0.1 µM
2,"N#CCNC(=O)c1ccc2c(Oc3ccc(C(F)(F)F)cc3)cccc2c1 [Compound 22, N-(cyanomethyl)-5-(4-(trifluoromethyl)phenoxy)-2-naphthamid]",< 0.1 µM
3,"COc1cc(Oc2ccc(C(F)(F)F)cc2)c2ncc(C(=O)NC(C)C)cc2c1 [Compound 113, N-Isopropyl-6-methoxy-8-(4-(trifluoromethyl)phenoxy)quinoline-3-carboxamide]",< 0.1 µM

# Same assay, conditions: Homo sapiens, HEK-293T; HEK293T cells stably transfected with 8×TBD luciferase reporter and pRLTK; 24-hr incubation; firefly luciferase activity; read-out: Firefly Luciferase IC50
row,Structure (SMILES),IC50
1,"O=C(NC1(c2ccccn2)CC1)c1ccc2c(Oc3ccc(C(F)(F)F)cc3)cccc2c1 [Compound 54, N-(1-(pyridin-2-yl)cyclopropyl)-5-(4-(trifluoromethyl)phenoxy)-2-naphthamide]",< 0.1 µM
2,"CC#C[C@@H](C)NC(=O)c1ccc2c(Oc3ccc(C(F)(F)F)cc3)cccc2c1 [Compound 90, N-[(1R)-1-methylbut-2-ynyl]-5-[4-(trifluoromethyl)phenoxy]naphthalene-2-carboxamide]",< 0.1 µM
3,"C[C@H](CO)NC(=O)c1cnc2c(Oc3ccc(C(F)(F)F)cc3)cc(F)c(F)c2c1 [Compound 102, (R)-5,6-difluoro-N-(1-hydroxypropan-2-yl)-8-(4-(trifluoromethyl)phenoxy)quinoline-3-carboxamide]",< 0.1 µM
4,"C[C@@H](NC(=O)c1ccc2c(Oc3ccc(C(F)(F)F)cc3)cccc2c1)C1CCN(C)CC1 [Compound 157, (R)-N-(1-(1-methylpiperidin-4-yl)ethyl)-5-(4-(trifluoromethyl)phenoxy)-2-naphthamide]",< 0.1 µM
5,"C[C@@H](NC(=O)c1ccc2c(Oc3ccc(C(F)(F)F)cc3)cccc2c1)C1CN(CCF)C1 [Compound 124, (R)—N-(1-(1-(2-fluoroethyl)azetidin-3-yl)ethyl)-5-(4-(trifluoromethyl)phenoxy)-2-naphthamide]",< 0.1 µM
6,"C[C@H](NC(=O)c1ccc2c(Oc3ccc(C(F)(F)F)cc3)cccc2c1)c1cnccn1 [Compound 47, (S)—N-(1-(pyrazin-2-yl)ethyl)-5-(4-(trifluoromethyl)phenoxy)-2-naphthamide]",0.1 to 1 µM
7,"CCN1CC([C@H](C)NC(=O)c2ccc3c(Oc4ccc(C(F)(F)F)cc4)cccc3c2)C1 [Compound 130, (S)—N-(1-(1-ethylazetidin-3-yl)ethyl)-5-(4-(trifluoromethyl)phenoxy)-2-naphthamide]",0.1 to 1 µM
8,"COc1cc(Oc2ccc(C(F)(F)F)cc2)c2ncc(C(=O)N[C@@H](C)c3ccccn3)cc2c1 [Compound 43, (S)-6-methoxy-N-(1-(pyridin-2-yl)ethyl)-8-(4-(trifluoromethyl)phenoxy)quinoline-3-carboxamide]",< 0.1 µM
9,"C[C@@H](NC(=O)c1ccc2c(Oc3ccc(C(F)(F)F)cc3)cccc2c1)c1cccc(N(C)C)n1 [Compound 77, (R)—N-(1-(6-(dimethylamino)pyridin-2-yl)ethyl)-5-(4-(trifluoromethyl)phenoxy)-2-naphthamide]",< 0.1 µM
10,"C[C@H](NC(=O)c1ccc2c(Oc3ccc(C(F)(F)F)cc3)cccc2c1)c1nnn(C)n1 [Compound 58, (S)—N-(1-(2-methyl-2H-tetrazol-5-yl)ethyl)-5-(4-(trifluoromethyl)phenoxy)-2-naphthamide]",< 0.1 µM
11,"C[C@H](CO)NC(=O)c1cc2cccc(Oc3ccc(C(F)(F)F)cc3)c2s1 [Compound 33, (R)—N-(1-hydroxypropan-2-yl)-7-(4-(trifluoromethyl)phenoxy)benzo[b]thiophene-2-carboxamide]",< 0.1 µM
12,"C[C@H](NC(=O)c1cnc2c(Oc3ccc(C(F)(F)F)cc3)cccc2c1)c1ccccn1 [Compound 19, N-[(1S)-1-(2-pyridyl)ethyl]-8-[4-(trifluoromethyl)phenoxy]quinoline-3-carboxamide]",< 0.1 µM
13,"CC(NC(=O)c1ccc2c(Oc3ccc(C(F)(F)F)cc3)cccc2c1)c1cc(Br)ccn1 (stereo not drawn) [Compound 75, N-(1-(4-bromopyridin-2-yl)ethyl)-5-(4-(trifluoromethyl)phenoxy)-2-naphthamide]",< 0.1 µM
14,"CC(C)NC(=O)c1ccc2c(Oc3ccc(C(F)(F)F)cc3)cccc2n1 [Compound 70, N-Isopropyl-5-(4-(trifluoromethyl)phenoxy)quinoline-2-carboxamide]",< 0.1 µM
15,"C[C@@H](NC(=O)c1ccc2c(Oc3ccc(C(F)(F)F)cc3)cccc2c1)C1CCN(CC(F)F)CC1 [Compound 162, (R)-N-(1-(1-(2,2-difluoroethyl)piperidin-4-yl)ethyl)-5-(4-(trifluoromethyl)phenoxy)-2-naphthamide]",0.1 to 1 µM
16,"C[C@H](NC(=O)c1ccc2c(Oc3ccc(C(F)(F)F)cc3)cccc2c1)c1cccnc1N [Compound 78, (S)—N-(1-(2-aminopyridin-3-yl)ethyl)-5-(4-(trifluoromethyl)phenoxy)-2-naphthamide]",< 0.1 µM
17,"C[C@@H](NC(=O)c1ccc2c(Oc3ccc(C(F)(F)F)cc3)cccc2c1)C1(F)CNC1 [Compound 152, (R)-N-(1-(3-fluoroazetidin-3-yl)ethyl)-5-(4-(trifluoromethyl)phenoxy)-2-naphthamide]",0.1 to 1 µM
18,"C[C@@H](NC(=O)c1ccc2c(Oc3ccc(C(F)(F)F)cc3)cccc2c1)C1CCNCC1 [Compound 150, (R)-N-(1-(piperidin-4-yl)ethyl)-5-(4-(trifluoromethyl)phenoxy)-2-naphthamide]",< 0.1 µM

row,Structure (SMILES),IC50
1,"C[C@@H](NC(=O)c1cnc2c(Oc3ccc(C(F)(F)F)cc3)cccc2c1)c1ccccn1 [Compound 17, N-[(1R)-1-(2-pyridyl)ethyl]-8-[4-(trifluoromethyl)phenoxy]quinoline-3-carboxamide]",0.1 to 1 µM
2,"C[C@@H](NC(=O)c1ccc2c(Oc3ccc(C(F)(F)F)cc3)cccc2c1)c1cccc2cn[nH]c12 [Compound 87, N-[(1R)-1-(1H-indazol-7-yl)ethyl]-5-[4-(trifluoromethyl)phenoxy]naphthalene-2-carboxamide]",< 0.1 µM
3,"COC[C@@H](C)NC(=O)c1cnc2c(Oc3ccc(C(F)(F)F)cc3)cc(OC)cc2c1 [Compound 44, (R)-6-methoxy-N-(1-methoxypropan-2-yl)-8-(4-(trifluoromethyl)phenoxy)quinoline-3-carboxamide]",< 0.1 µM
4,"CS(=O)(=O)NC(=O)c1ccc2c(Oc3ccc(Cl)c(Cl)c3)cccc2c1 [Compound 6, 5-(3,4-dichlorophenoxy)-N-(methylsulfonyl)-2-naphthamide]",< 0.1 µM
5,"C[C@@H](NC(=O)c1ccc2c(Oc3ccc(C(F)(F)F)cc3)cccc2c1)C1CN(CC(F)F)C1 [Compound 125, (R)—N-(1-(1-(2,2-difluoroethyl)azetidin-3-yl)ethyl)-5-(4-(trifluoromethyl)phenoxy)-2-naphthamide]",< 0.1 µM
6,"C[C@H](NC(=O)c1ccc2c(Oc3ccc(C(F)(F)F)cc3)cccc2c1)C1CN(C)C1 [Compound 127, (S)—N-(1-(1-methylazetidin-3-yl)ethyl)-5-(4-(trifluoromethyl)phenoxy)-2-naphthamide]",1 to 3 µM
7,"C#C[C@H](C)NC(=O)c1ccc2c(Oc3ccc(C(F)(F)F)cc3)cccc2c1 [Compound 62, (S)—N-(but-3-yn-2-yl)-5-(4-(trifluoromethyl)phenoxy)-2-naphthamide]",< 0.1 µM
8,"C[C@@H](NC(=O)c1ccc2c(Oc3ccc(C(F)(F)F)cc3)cccc2c1)C1CCC1 [Compound 59, (R)—N-(1-cyclobutylethyl)-5-(4-(trifluoromethyl)phenoxy)-2-naphthamide]",< 0.1 µM
9,"CNCC[C@@H](C)NC(=O)c1ccc2c(Oc3ccc(C(F)(F)F)cc3)cccc2c1 [Compound 145, (R)-N-(4-(methylamino)butan-2-yl)-5-(4-(trifluoromethyl)phenoxy)-2-naphthamide]",< 0.1 µM
10,"COC[C@@H](C)NC(=O)c1ccc2c(Oc3ccc(C(F)(F)F)cc3)cccc2c1 [Compound 26, (R)—N-(1-methoxypropan-2-yl)-5-(4-(trifluoromethyl)phenoxy)-2-naphthamide]",< 0.1 µM
11,"CNS(=O)(=O)c1ccc2c(Oc3ccc(Cl)c(Cl)c3)cccc2c1 [Compound 9, 5-(3,4-dichlorophenoxy)-N-methylnaphthalene-2-sulfonamide]",< 0.1 µM
12,"CC(C)NC(=O)c1ccc2c(Oc3ccc(C(F)(F)F)cc3F)cccc2c1 [Compound 84, 5-(2-fluoro-4-(trifluoromethyl)phenoxy)-N-isopropyl-2-naphthamide]",< 0.1 µM
13,"C[C@@H](CN)NC(=O)c1ccc2c(Oc3ccc(C(F)(F)F)cc3)cccc2c1 [Compound 108, (S)—N-(1-aminopropan-2-yl)-5-(4-(trifluoromethyl)phenoxy)-2-naphthamide]",< 0.1 µM
14,"CC(C)NC(=O)c1ccc2c(Oc3ccc(C(F)(F)F)cc3)cncc2c1 [Compound 93, N-isopropyl-4-(4-(trifluoromethyl)phenoxy)isoquinoline-7-carboxamide]",< 0.1 µM
15,"COc1cc(Oc2ccc(C(F)(F)F)cc2)c2ncc(C(=O)N[C@H](C)c3ccccn3)cc2c1 [Compound 42, (R)-6-methoxy-N-(1-(pyridin-2-yl)ethyl)-8-(4-(trifluoromethyl)phenoxy)quinoline-3-carboxamide]",0.1 to 1 µM
16,"O=C(NC1(c2ccccc2)COC1)c1ccc2c(Oc3ccc(C(F)(F)F)cc3)cccc2c1 [Compound 37, N-(3-phenyloxetan-3-yl)-5-(4-(trifluoromethyl)phenoxy)-2-naphthamide]",< 0.1 µM
17,"C[C@H](NC(=O)c1ccc2c(Oc3ccc(C(F)(F)F)cc3)cccc2c1)c1nn[nH]n1 [Compound 52, (S)—N-(1-(2H-tetrazol-5-yl)ethyl)-5-(4-(trifluoromethyl)phenoxy)-2-naphthamide]",1 to 3 µM
18,"C[C@@H](NC(=O)c1ccc2c(Oc3ccc(C(F)(F)F)cc3)cccc2c1)c1cccc2ccc(=O)[nH]c12 [Compound 98, N-[(1R)-1-(2-oxo-1H-quinolin-8-yl)ethyl]-5-[4-(trifluoromethyl)phenoxy]naphthalene-2-carboxamide]",< 0.1 µM
